Test results as given in the supplement of paper PMC11061612.

How the values were obtained:
AZD7648 = compound: Cc1cc2ncnn2cc1Nc1ncc2c(n1)n(C1CCOCC1)c(=O)n2C [AZD7648]; details: max 10 µM
Procedure, shortened: (§1)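 Viability was measured with CellTiter-Glo 2.0 luminescence after 72 hours of dosing at a final DMSO of typically 0.2%, and scaled between blank-well and DMSO-well means. Beforehand, cancer cell lines sat 24 hours at 37°C and 5% CO2 in 1536-well plates in 7.5 μl DMEM/F12 or RPMI with 10% FBS. A non-linear mixed effects model fitted two-parameter logistic curves to the dose responses. The single-agent IC50 comes from these fits.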

AZD5363 = compound: C1CN(CCC1(C(=O)N[C@@H](CCO)C2=CC=C(C=C2)Cl)N)C3=NC=NC4=C3C=CN4 [AZD5363]; details: max 10 µM
Procedure, shortened: as §1

AZD2811 = compound: CCN(CCO)CCCOc1ccc2c(Nc3cc(CC(=O)Nc4cccc(F)c4)[nH]n3)ncnc2c1 [AZD2811]; details: max 1 µM
Procedure, shortened: as §1

AZD8186 = compound: C[C@@H](Nc1cc(F)cc(F)c1)c1cc(C(=O)N(C)C)cc2c(=O)cc(N3CCOCC3)oc12 [AZD8186]; details: max 10 µM
Procedure, shortened: as §1

SRA737 = compound: N#Cc1cnc(Nc2cc(NC[C@H]3CNCCO3)c(C(F)(F)F)cn2)cn1 [SRA737]; details: max 10 µM
Procedure, shortened: as §1

AZD0156 = compound: CN(C)CCCOc1ccc(-c2ccc3ncc4c(c3c2)n(C2CCOCC2)c(=O)n4C)cn1 [AZD0156]; details: max 3 µM
Procedure, shortened: as §1

AZD5153 = compound: COc1nnc2ccc(N3CCC(c4ccc(OCCN5CCN(C)C(=O)[C@H]5C)cc4)CC3)nn12 [AZD5153]; details: max 1 µM
Procedure, shortened: as §1

AZD4320 = compound: CN(CC[C@H](CSC1=CC=CC=C1)NC2=C(C=C(C=C2)S(=O)(=O)NC(=O)C3=CC=C(C=C3)N4CCC(CC4)[C@H](C5=CC=CC=C5C6=CC=C(C=C6)Cl)O)S(=O)(=O)C(F)(F)F)CCO [AZD4320]; details: max 1 µM
Procedure, shortened: as §1

Etoposide = compound: COc1cc([C@@H]2c3cc4c(cc3[C@@H](O[C@@H]3O[C@@H]5CO[C@@H](C)O[C@H]5[C@H](O)[C@H]3O)[C@H]3COC(=O)[C@H]23)OCO4)cc(OC)c1O [Etoposide]; details: max 10 µM
Procedure, shortened: as §1

Gefitinib = compound: COc1cc2ncnc(Nc3ccc(F)c(Cl)c3)c2cc1OCCCN1CCOCC1 [Gefitinib]; details: max 10 µM
Procedure, shortened: as §1

5-Fluorouracil = compound: O=c1[nH]cc(F)c(=O)[nH]1 [5-Fluorouracil]; details: max 20 µM
Procedure, shortened: as §1

Prexasertib = compound: COc1cccc(OCCCN)c1-c1cc(Nc2cnc(C#N)cn2)n[nH]1 [Prexasertib]; details: max 1 µM
Procedure, shortened: as §1

Olaparib = compound: O=C(c1cc(Cc2n[nH]c(=O)c3ccccc23)ccc1F)N1CCN(C(=O)C2CC2)CC1 [Olaparib]; details: max 10 µM
Procedure, shortened: as §1

SN-38 = compound: CCc1c2c(nc3ccc(O)cc13)-c1cc3c(c(=O)n1C2)COC(=O)[C@]3(O)CC [SN-38]; details: max 0.3 µM
Procedure, shortened: as §1

Trametinib = compound: CC(=O)Nc1cccc(-n2c(=O)n(C3CC3)c(=O)c3c(Nc4ccc(I)cc4F)n(C)c(=O)c(C)c32)c1 [Trametinib]; details: max 1 µM
Procedure, shortened: as §1

Gemcitabine = compound: Nc1ccn([C@@H]2O[C@H](CO)[C@@H](O)C2(F)F)c(=O)n1 [Gemcitabine]; details: max 0.3 µM
Procedure, shortened: as §1

Taselisib = compound: Cc1nc(-c2cn3c(n2)-c2ccc(-c4cnn(C(C)(C)C(N)=O)c4)cc2OCC3)n(C(C)C)n1 [Taselisib]; details: max 10 µM
Procedure, shortened: as §1

Savolitinib = compound: C[C@@H](c1ccc2nccn2c1)n1nnc2ncc(-c3cnn(C)c3)nc21 [Savolitinib]; details: max 1 µM
Procedure, shortened: as §1

AZD5991 = compound: Cc1c2c(nn1C)CSCc1cc(n(C)n1)CSc1cc(c3ccccc3c1)OCCCc1c(C(=O)O)n(C)c3c-2c(Cl)ccc13 [AZD5991]; details: max 1 µM
Procedure, shortened: as §1

Lapatinib = compound: CS(=O)(=O)CCNCc1ccc(-c2ccc3ncnc(Nc4ccc(OCc5cccc(F)c5)c(Cl)c4)c3c2)o1 [Lapatinib]; details: max 10 µM
Procedure, shortened: as §1

Palbociclib = compound: CC(=O)c1c(C)c2cnc(Nc3ccc(N4CCNCC4)cn3)nc2n(C2CCCC2)c1=O [Palbociclib]; details: max 10 µM
Procedure, shortened: as §1

MK-2206 = compound: NC1(c2ccc(-c3nc4ccn5c(=O)[nH]nc5c4cc3-c3ccccc3)cc2)CCC1 [MK-2206]; details: max 10 µM
Procedure, shortened: as §1

Paclitaxel = compound: CC(=O)O[C@H]1C(=O)[C@@]2(C)[C@H]([C@H](OC(=O)c3ccccc3)[C@]3(O)C[C@H](OC(=O)[C@H](O)[C@@H](NC(=O)c4ccccc4)c4ccccc4)C(C)=C1C3(C)C)[C@]1(OC(C)=O)CO[C@@H]1C[C@@H]2O [Paclitaxel]; details: max 3 µM
Procedure, shortened: as §1

AZD6738 = compound: C[C@@H]1COCCN1C2=NC(=NC(=C2)C3(CC3)[S@](=N)(=O)C)C4=C5C=CNC5=NC=C4 [AZD6738]; details: max 10 µM
Procedure, shortened: as §1

Dasatinib = compound: CC1=C(C(=CC=C1)Cl)NC(=O)C2=CN=C(S2)NC3=CC(=NC(=N3)C)N4CCN(CC4)CCO [Dasatinib]; details: max 2 µM
Procedure, shortened: as §1

Venetoclax = compound: CC1(C)CCC(CN2CCN(c3ccc(C(=O)NS(=O)(=O)c4ccc(NCC5CCOCC5)c([N+](=O)[O-])c4)c(Oc4cnc5[nH]ccc5c4)c3)CC2)=C(c2ccc(Cl)cc2)C1 [Venetoclax]; details: max 1 µM
Procedure, shortened: as §1

[1] = compound: O=C(Nc1ccc2[nH]nc(-c3ccncc3)c2c1)[C@@H]1CCN(CC(=O)N2CCN(c3ccc(-c4ncccn4)cc3)CC2)C1; details: max 5 µM
Procedure, shortened: as §1

Doxorubicin = compound: COc1cccc2c1C(=O)c1c(O)c3c(c(O)c1C2=O)C[C@@](O)(C(=O)CO)C[C@@H]3O[C@H]1C[C@H](N)[C@H](O)[C@H](C)O1 [Doxorubicin]; details: max 1 µM
Procedure, shortened: as §1

Crizotinib = compound: C[C@@H](Oc1cc(-c2cnn(C3CCNCC3)c2)cnc1N)c1c(Cl)ccc(F)c1Cl [Crizotinib]; details: max 10 µM
Procedure, shortened: as §1

AZD1390 = compound: CC(C)n1c(=O)n(C)c2cnc3cc(F)c(-c4ccc(OCCCN5CCCCC5)nc4)cc3c21 [AZD1390]; details: max 0.3 µM
Procedure, shortened: as §1

AZD1775 = compound: C=CCn1c(=O)c2cnc(Nc3ccc(N4CCN(C)CC4)cc3)nc2n1-c1cccc(C(C)(C)O)n1 [AZD1775]; details: max 3 µM
Procedure, shortened: as §1

Selumetinib = compound: Cn1cnc2c(F)c(Nc3ccc(Br)cc3Cl)c(C(=O)NOCCO)cc21 [Selumetinib]; details: max 10 µM
Procedure, shortened: as §1

SG3199 = compound: CC1=CN2[C@@H](C1)C=NC3=CC(=C(C=C3C2=O)OC)OCCCCCOC4=C(C=C5C(=C4)N=C[C@@H]6CC(=CN6C5=O)C)OC [SG3199]; details: max 0.001 µM
Procedure, shortened: as §1

Carboplatin = compound: C1CC(C1)(C(=O)[O-])C(=O)[O-].N.N.[Pt+2] [Carboplatin]; details: max 10 µM
Procedure, shortened: as §1

Alisertib = compound: COc1cc(Nc2ncc3c(n2)-c2ccc(Cl)cc2C(c2c(F)cccc2OC)=NC3)ccc1C(=O)O [Alisertib]; details: max 10 µM
Procedure, shortened: as §1

| Cell Line | IC50, cell viability 72 h (AZD7648) [nM] | IC50, cell viability 72 h (AZD5363) [nM] | IC50, cell viability 72 h (AZD2811) [nM] | IC50, cell viability 72 h (AZD8186) [nM] | IC50, cell viability 72 h (SRA737) [nM] | IC50, cell viability 72 h (AZD0156) [nM] | IC50, cell viability 72 h (AZD5153) [nM] | IC50, cell viability 72 h (AZD4320) [nM] | IC50, cell viability 72 h (Etoposide) [nM] | IC50, cell viability 72 h (Gefitinib) [nM] | IC50, cell viability 72 h (5-Fluorouracil) [nM] | IC50, cell viability 72 h (Prexasertib) [nM] | IC50, cell viability 72 h (Olaparib) [nM] | IC50, cell viability 72 h (SN-38) [nM] | IC50, cell viability 72 h (Trametinib) [nM] | IC50, cell viability 72 h (Gemcitabine) [nM] | IC50, cell viability 72 h (Taselisib) [nM] | IC50, cell viability 72 h (Savolitinib) [nM] | IC50, cell viability 72 h (AZD5991) [nM] | IC50, cell viability 72 h (Lapatinib) [nM] | IC50, cell viability 72 h (Palbociclib) [nM] | IC50, cell viability 72 h (MK-2206) [nM] | IC50, cell viability 72 h (Paclitaxel) [nM] | IC50, cell viability 72 h (AZD6738) [nM] | IC50, cell viability 72 h (Dasatinib) [nM] | IC50, cell viability 72 h (Venetoclax) [nM] | IC50, cell viability 72 h [1] [nM] | IC50, cell viability 72 h (Doxorubicin) [nM] | IC50, cell viability 72 h (Crizotinib) [nM] | IC50, cell viability 72 h (AZD1390) [nM] | IC50, cell viability 72 h (AZD1775) [nM] | IC50, cell viability 72 h (Selumetinib) [nM] | IC50, cell viability 72 h (SG3199) [nM] | IC50, cell viability 72 h (Carboplatin) [nM] | IC50, cell viability 72 h (Alisertib) [nM] |
| --- | --- | --- | --- | --- | --- | --- | --- | --- | --- | --- | --- | --- | --- | --- | --- | --- | --- | --- | --- | --- | --- | --- | --- | --- | --- | --- | --- | --- | --- | --- | --- | --- | --- | --- | --- |
| NCI-H2342 (Lung Adenocarcinoma) | > 10000 | > 10000 | > 1000 | > 10000 | > 10000 | > 3000 | > 1000 | > 1000 | > 10000 | > 10000 | > 20000 | > 1000 | > 10000 | > 300 | > 1000 | > 300 | > 10000 | > 1000 | > 1000 | > 10000 | > 10000 | > 10000 | 27 | > 10000 | > 2000 | > 1000 | > 5000 | > 1000 | > 10000 | > 300 | > 3000 | > 10000 | > 1 | > 10000 | > 10000 |
| OPM-2 (Plasma Cell Myeloma) | > 10000 | 1120 | > 1000 | > 10000 | 4980 | > 3000 | 12.6 | 691 | 9350 | > 10000 | > 20000 | 21.3 | > 10000 | 108 | 670 | 98 | 815 | > 1000 | 32.3 | > 10000 | 8600 | 4970 | 6.68 | 3920 | > 2000 | > 1000 | > 5000 | 754 | 4230 | > 300 | 559 | > 10000 | > 1 | > 10000 | 5670 |
| OVMIU (Ovarian Carcinoma) | > 10000 | > 10000 | > 1000 | > 10000 | > 10000 | > 3000 | 302 | > 1000 | > 10000 | 3200 | > 20000 | 267 | > 10000 | > 300 | 70 | > 300 | 148 | > 1000 | > 1000 | 3240 | > 10000 | > 10000 | 77.7 | > 10000 | 209 | > 1000 | 3190 | 801 | > 10000 | > 300 | 1720 | > 10000 | > 1 | > 10000 | 7010 |
| PANC-03-27 (Pancreatic Carcinoma) | > 10000 | > 10000 | > 1000 | > 10000 | 3400 | > 3000 | > 1000 | > 1000 | > 10000 | > 10000 | > 20000 | 7.87 | > 10000 | 49.8 | 271 | 183 | 4600 | > 1000 | > 1000 | > 10000 | > 10000 | > 10000 | 214 | 2570 | 1760 | > 1000 | 3080 | > 1000 | > 10000 | > 300 | 184 | > 10000 | > 1 | > 10000 | > 10000 |
| PSN1 (Pancreatic Carcinoma) | > 10000 | > 10000 | > 1000 | > 10000 | > 10000 | > 3000 | > 1000 | > 1000 | 8600 | > 10000 | 7840 | > 1000 | > 10000 | 110 | 18.6 | 33.6 | 5380 | > 1000 | > 1000 | > 10000 | > 10000 | > 10000 | 61.9 | > 10000 | 244 | > 1000 | 193 | > 1000 | 7760 | > 300 | 1630 | 952 | > 1 | > 10000 | > 10000 |
